Patent US9573907B2, “2, 4-pyrimidine derivatives and use thereof” (SNU R&DB FOUNDATION, priority 2009, dated 2017)
Entries after “also recorded” stand apart in the source; their conditions may differ.

What was measured:
bone marrow-derived DCs = assay: DC maturation assay (secreted TNFα); assay type: cell-based, mice; conditions: AIMP1−/− splenocytes pretreated 10 μM, 24 h; compared to NC1
Description: FIGS. 1 to 9 represent suppression of cell surface gp96 by GPM1 reduces DC maturation and B220^+ population in gp96tm transgenic mice. (FIG. 1) Chemical structure of GPM1 (Formula 2) and negative control (NC1, Formula 16) used in this study. (FIG. 2) The dose-dependent effect of GPM1 or NC1 on the AIMP1-gp96 interaction using ELISA method as described. The indicated concentrations of the two compounds and biotin-conjugated murine gp96 were added to AIMP1 coated on the surface of microtiter wells, and gp96 bound to AIMP1 was detected with strepavidin-conjugated peroxidase. (FIG. 3) The binding of GPM1 to gp96 was examined by surface plasmon resonance (SPR). GPM1 at the indicated concentrations was injected to immobilized gp96 and the binding was measured using Biacore 3000. The response data were processed using data from a reference surface and buffer injections. Each concentration was tested in triplicate. (FIG. 4) RAW24.7 cells were treated with 10 μM GPM1 for 24 h. Cell lysates were immunoprecipitated with control IgG or anti-gp96 antibody and the immunoprecipitated proteins were immunoblotted with anti-KDELR1, antiAIMP1 and gp96 antibodies. WCL means whole cell lysate. […] TNFα secreted from BMDCs was quantified by ELISA. […]

gp96 V712A/L713A/F714Y = target: T1, gp96 V712A/L713A/F714Y (Homo sapiens, UniProt P14625, F718Y/L717A/V716A); assay: Surface plasmon resonance, GPM1 binding to gp96 mutant V712A/L713A/F714Y
T1 construct: made in house; host or cells: Escherichia coli BL21 (DE3)
Description: Human gp96 was expressed as His tag fusion protein in Escherichia coli BL21 (DE3) and purified by nickel affinity chromatography. His-tagged human gp96 was immobilized onto CM5 sensor chips using standard amine coupling2. PBS was used as a running buffer. The carboxymethyl dextran surface within one side of the flow cell was activated with a 7-min injection of a 1:1 ratio of 0.4M EDC and 0.1M NHS. The protein was coupled to the surface with a 7-min injection of gp96 diluted in 10 mM sodium acetate, pH 3.7. Remaining activated groups were blocked with a 7-min injection of 1.0M ethanolamine, pH 8.5. GPM1 compound was dissolved directly in the PBS running buffer containing 1% DMSO and injected at a flow rate of 20 μl/min at 25° C. and the binding was determined by the change in resonance units (RU). The compound concentration varied from 10 nM to 25 μM and each concentration was tested at least three times. All of the bound complexes dissociated back to baseline within a reasonable time frame. Therefore, no regeneration was required. Sensorgram was processed by subtracting the binding response recorded from the control surface, followed by subtracting an average of the buffer blank injections from the reaction spot. To determine kinetic rate constants, all data sets were fit to a simple 1:1 binding with drifting baseline model using BIAevaluation program.
The present inventors compared the dose-dependent effect of GPM1 and NC1 on the interaction of gp96 and AIMP1 using ELISA. […] The present inventors monitored the binding kinetics of GPM1 to gp96 or AIMP1 by surface plasmon resonance (SPR) using BIAcore 3000. […] To further define the GPM1 binding region of gp96 (Han, J. M., Park, S. G., Liu, B., Park, B. J., Kim, J. Y., Jin, C. H., Song, Y. W., Li, Z. & Kim, S. Am. J. Pathol. 170, 2042-2054 (2007)), the present inventors introduced point mutations at L707, V706, V712, L713, F714, Y731 and M738 that are located within AIMP1 binding region of gp96 and monitored how the mutations at these sites would affect the binding of GPM1 to gp96 using SPR method.

gp96 = gp96 (Homo sapiens, UniProt P14625); assay: ATPase activity of gp96 (ATPase assay kit); assay type: biochemical; conditions: 0 vs. 100 μM
Description: FIG. 22 represents the effect of point mutations on the ATPase activity of gp96. (a) The effect of gp96 point mutations on its ATPase activity was examined using ATPase assay kit (Innova Biosciences, Cambridge, UK). One unit is the amount of enzyme that catalyzes the reaction of 1 μmol of substrate per minute. The enzymatic activity was calculated according to manufacturer's instruction.
FIG. 23 represents the effect of GPM1 on the ATPase activity gp96. (a) The dose-dependent effect of GPM1 on the ATPase activity.

T1 sequence (P14625 22-803 V716A/L717A/F718Y): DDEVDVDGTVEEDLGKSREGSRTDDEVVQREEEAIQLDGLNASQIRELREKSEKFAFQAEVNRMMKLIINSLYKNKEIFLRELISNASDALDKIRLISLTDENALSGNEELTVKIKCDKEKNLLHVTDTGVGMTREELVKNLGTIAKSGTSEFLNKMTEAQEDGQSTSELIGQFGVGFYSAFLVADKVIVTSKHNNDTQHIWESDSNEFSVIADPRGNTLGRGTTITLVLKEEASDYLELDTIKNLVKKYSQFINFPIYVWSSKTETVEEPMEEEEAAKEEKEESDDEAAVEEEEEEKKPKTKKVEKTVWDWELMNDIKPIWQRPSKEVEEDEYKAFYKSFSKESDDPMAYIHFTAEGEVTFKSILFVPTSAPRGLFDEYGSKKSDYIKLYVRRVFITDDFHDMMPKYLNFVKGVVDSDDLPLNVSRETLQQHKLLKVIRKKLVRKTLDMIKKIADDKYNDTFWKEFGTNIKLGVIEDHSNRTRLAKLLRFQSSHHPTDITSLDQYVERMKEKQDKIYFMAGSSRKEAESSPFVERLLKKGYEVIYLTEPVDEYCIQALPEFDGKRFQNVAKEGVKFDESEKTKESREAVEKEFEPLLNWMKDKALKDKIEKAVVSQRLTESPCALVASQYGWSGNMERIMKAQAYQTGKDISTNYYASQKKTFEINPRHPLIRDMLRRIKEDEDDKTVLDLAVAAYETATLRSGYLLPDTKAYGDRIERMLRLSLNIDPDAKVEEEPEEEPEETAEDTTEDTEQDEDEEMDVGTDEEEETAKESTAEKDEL
gp96, sequence (P14625 22-803): as the sequence (P14625 22-803 V716A/L717A/F718Y) above, with A695V, A696L, Y697F counted along it

Structure (SMILES): COC(=O)[C@@H](Oc1nc(OC)cc(OC)n1)C(C)C [GPM1, (S)-methyl 2-(4,6-dimethoxypyrimidin-2-yloxy)-3-methylbutanoate]
- amount of secreted TNF-α (bone marrow-derived DCs): significantly reduced
- Kd (gp96 V712A/L713A/F714Y): 21.9 µM
- koff (dissociation rate constant) (gp96 V712A/L713A/F714Y): 0.0142 s⁻¹
- kon (gp96 V712A/L713A/F714Y; read-out: Ka): 650 M⁻¹ s⁻¹
- effect on the gp96 ATPase activity (gp96): little effect; also recorded: did not affect
